Test results taken from US7786097B2, “Tricyclic compounds, compositions and methods” (Pfizer Inc., priority 2007, dated 2010).

Key:
[1] = tested on: Cortical bone formation rate (BFR); assay: Cortical bone histomorphometry, bone formation rate (BFR); type: in vivo; conditions: AUC 0-4 hr, mice
Description: During the in-life portion of each study, mice received two intraperitoneal (i.p.) injections (20 mg/kg, […]) of calcein (C-0875; Sigma-Aldrich, St. Louis, Mo.) on days 1 and 26 for bone histomorphometry measurements. Calcein incorporates into the bone mineral and allows measurement of bone formation rate. Calcein was dissolved in 2% sodium bicarbonate. During the tissue harvest, the left tibiae were excised and cleaned for cortical histomorphometry measurements. After all skin and muscle were removed, tibiae were placed in 70% ethanol 4° C.) in the dark for a minimum of 24 hours.
Ground transverse sections were used for histomorphometric analysis of cortical bone. Bones were sectioned using a low-speed saw (Isomet, Buehler, Lake Bluff, Ill.) equipped with a diamond wafer blade. The end of each tibia was removed proximal to tibia-fibula synostosis and a […] cross-section was cut. Using a roughened glass plate and a cork, sections were ground to […] until transparent and all labels were distinguishable under a fluorescent microscope. Sections were dehydrated using the following solutions for a minimum of two minutes each: 1) 70% ethanol, 2) 95% ethanol, 3) 100% ethanol, 4) 50/50 ethanol/xylene, and 5) xylene (twice) (#534056; Sigma-Aldrich, St. Louis, Mo.). Sections were mounted using Eukitt Quick Mounting Medium (#03989, Sigma-Aldrich, St. Louis, Mo.) after which coverslip was applied. Using the Osteomeasure Bone Analysis Program (Osteometrics, Inc., Decatur, Ga.), bone formation rate was calculated by tracing the 1st and […] fluorescent labels and the inner and outer perimeter of the bone. Bone formation rate was calculated by the following equation: (Inter-label width/Label interval)*(Labeled perimeter/Bone perimeter). At least five samples were measured from each treatment group in each study.

[2] = tested on: IL-6 levels in Human A549 lung epithelial cells; assay: IL-1β-stimulated IL-6 in A549 cells; type: cell-based; conditions: additional results (footnote a)
Description: IL-6 IC50 and % Inhibition
Human A549 lung epithelial cells (American Type Culture Collection, Rockville, Md.) were cultured in Kaighn's F-12K medium with penicillin-streptomycin (10 U/mL) and 10% heat-inactivated fetal bovine serum (all from Invitrogen, Grand Island, N.Y.). A549 cells were plated at a density of 30,000 cells/well in 96-well plates and incubated overnight at 37° C. and with 5% CO2. The cells were serum-starved by replacing the growth medium with serum-free Kaighn's F-12K medium with penicillin-streptomycin (10 U/mL) and, again, incubating overnight at 37° C. and with 5% CO2. On the third day, the medium was replaced with fresh serum-free medium and the cells were incubated with or without compound (vehicle was DMSO at 0.1% maximum concentration) for approximately 1 hour and then stimulated with 1 ng/mL recombinant human IL-1β (R&D Systems, Minneapolis, Minn.) for 20 hours at 37° C. and with 5% CO2. Cell supernatants were collected for determination of IL-6 levels using MSD (Meso Scale Discovery, Gaithersburg, Md.) 96-well Single Spot plates as per the manufacturer's instructions. Plates were read with an MSD Sector Imager 6000. […] Vehicle was used to define the 0% inhibition control. Percent inhibition for each compound concentration, relative to these controls, was calculated using Excel (Microsoft, Redmond, Wash.). […]

[3] = tested on: LPS-induced serum TNFα; assay: LPS-induced serum TNFα suppression, 28-day repeat dose mouse model; type: in vivo, Swiss Webster female mice; conditions: mice, oral gavage 28 days
Description: (§1) The compounds were weighed and suspended in a vehicle of 0.5% methylcellulose/0.025% tween 20 (Sigma-Aldrich, St. Louis, Mo.). Compound suspensions were homogenized using a Polytron PT-3100 tissue homogenizer to create a very fine suspension and were then sonicated for 10 minutes using a water bath sonicator. Aliquots of each suspension were made for daily dosing at 0.2 ml/dose. Swiss Webster female mice, 10-12 weeks old, 28-29 grams, (Taconic, Germantown, N.Y.) were used in accordance with the guidelines of the Institutional Animal Care and Use Committee and in accordance with NIH guidelines on laboratory animal welfare. Mice were acclimated in the Pfizer animal facility for three to seven days prior to being utilized in a study. […] Each treatment group contained 5-10 mice. To establish a dosing regimen for the studies, a pilot pharmacodynamic time course experiment was conducted to quantify TNFα repression after a single ED80 dose.
(§2) Body weights were measured on the first and last day of each experiment. Blood samples were obtained after three weeks of dosing for a steady-state pharmacokinetic (PK) analysis. To assess compound effects on LPS-induced TNFα, all mice received an intraperitoneal injection of LPS (Salmonella typhosa, L-7895; Sigma-Aldrich, St. Louis) 2.5 hr after the last dose on day 28. Mice were sacrificed 90 minutes after LPS administration. Serum samples were quantified for osteocalcin and TNFα using the multiplex assays (Linco Research, Inc, St. Charles, Mo.; Luminex 100, Austin, Tex.). Samples were diluted 1:20 and the assay was run according to manufacturer's instructions. The osteocalcin standard was purchased separately (Biomedical Technologies Inc., Stoughton, Mass.). Mice were fasted for 4 hours before serum was collected for TNFα, and osteocalcin levels. For each experiment, outliers were detected by calculating the number of standard deviations from the mean of the group. If the value being examined was more than 2.5 standard deviations from the mean, it was excluded from the rest of the calculations.
(§3) The individual mouse percent inhibition values were fit to a four-parameter logistic model using the dose mean for each group.
(§4) ED50 and ED80 values were obtained for the various endpoints using a four-parameter logistic fit. For compounds which were tested multiple times, ED50 and ED80 values were obtained using four-parameter logistic fits of the combined data from multiple experiments.

[4] = tested on: Serum osteocalcin; assay: Serum osteocalcin suppression, 28-day repeat dose mouse model; type: in vivo, Swiss Webster female mice; conditions: mice
Description: as §1, §2, §3, §4

C[C@]12C=CC(=O)C=C1CC[C@@H]1[C@@H]2[C@@H](O)C[C@@]2(C)[C@H]1CC[C@]2(O)C(=O)CO [Prednisolone]
Cortical bone formation rate (BFR) EAUC50 [1]: 90 ng·h/mL
Cortical bone formation rate (BFR) EAUC80 [1]: 600 ng·h/mL
IL-6 % Inhibition [2]: 100%
TNFα Suppression (ED80 dose) [3]: 2.10 mg/kg
Serum osteocalcin EAUC50 ([4]; AUC 0-4 hr): 560 ng·h/mL
Serum osteocalcin EAUC80 ([4]; AUC 0-4 hr): 1600 ng·h/mL
Osteocalcin Suppression (ED80 dose) ([4]; oral gavage 28 days, serum osteocalcin): 6.80 mg/kg
